From paper PMC10877733, “Discovery and Characterization of VU0542270, the First Selective Inhibitor of Vascular Kir6.1/SUR2B KATP Channels” (Molecular Pharmacology, 2024) come the findings set out here.

One data set deals with T1, Kir3.1/Kir3.4 (Homo sapiens, UniProt P48544+P48549).
T1 construct: expressed in transfected cells
T1 sequence (P48549 1-501): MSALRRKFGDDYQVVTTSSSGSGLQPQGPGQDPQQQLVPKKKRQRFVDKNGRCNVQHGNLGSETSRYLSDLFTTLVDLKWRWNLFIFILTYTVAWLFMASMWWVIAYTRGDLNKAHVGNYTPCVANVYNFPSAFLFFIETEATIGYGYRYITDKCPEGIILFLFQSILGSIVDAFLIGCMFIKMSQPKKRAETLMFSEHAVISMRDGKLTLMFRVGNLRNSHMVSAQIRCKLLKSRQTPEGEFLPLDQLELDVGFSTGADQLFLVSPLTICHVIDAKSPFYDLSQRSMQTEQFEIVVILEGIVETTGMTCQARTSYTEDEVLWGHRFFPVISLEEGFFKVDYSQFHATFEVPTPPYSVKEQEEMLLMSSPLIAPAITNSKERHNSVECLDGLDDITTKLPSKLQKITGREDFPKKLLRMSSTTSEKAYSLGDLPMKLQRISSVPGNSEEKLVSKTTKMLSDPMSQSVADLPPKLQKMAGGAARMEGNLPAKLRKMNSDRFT
T1 sequence (P48544 1-419): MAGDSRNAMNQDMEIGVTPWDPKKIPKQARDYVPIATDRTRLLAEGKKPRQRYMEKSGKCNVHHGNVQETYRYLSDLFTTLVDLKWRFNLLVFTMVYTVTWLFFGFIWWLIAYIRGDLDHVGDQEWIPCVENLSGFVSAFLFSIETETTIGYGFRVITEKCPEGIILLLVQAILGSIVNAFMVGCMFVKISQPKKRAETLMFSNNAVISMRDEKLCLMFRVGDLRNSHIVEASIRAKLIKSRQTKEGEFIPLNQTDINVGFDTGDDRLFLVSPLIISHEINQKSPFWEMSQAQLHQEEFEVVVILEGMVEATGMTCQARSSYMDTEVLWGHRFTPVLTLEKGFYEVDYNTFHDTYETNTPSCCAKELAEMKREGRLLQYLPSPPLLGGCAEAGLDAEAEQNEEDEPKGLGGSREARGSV
The data set can be described thus: Thallium flux selectivity assay Kir3.1/Kir3.4. The format is cell-based. How it is done: Quantitative thallium flux assays of Kir6.1/SUR2B activity were performed essentially as described previously for Kir6.2/SUR1 ([Raphemot et al., 2014]; [Kharade et al., 2019]). Stable T-Rex-HEK293-Kir6.1/SUR2B cells or transiently transfected HEK293T cells were plated in polyamine-coated, clear-bottomed, black-walled 384-well plates and were cultured (37°C/5% CO2) overnight in Dulbecco’s modified Eagle’s medium (Gibco, Carlsbad, CA, 11995-065) containing 10% FBS (2 mM Penicillin-Streptomycin). The following day, cells were washed with assay buffer (i.e., Hanks’ balanced salt solution/20 mM HEPES) and loaded for 1 hour with thallium sensor dye Brilliant Thallium (Ion Bioscience, San Marcos, TX) at room temperature. Dye-loaded cells were washed with assay buffer and transferred to a Panoptic Kinetic Imaging Plate Reader (Wavefront Bioscience, Franklin, TN). Control and test compound treatments were for 4 minutes prior to adding 0.5 mM chloride-free thallium stimulus buffer (Ion Bioscience) to initiate thallium flux. […] Selectivity assays against other Kir channels were performed essentially as described previously ([Kharade et al., 2018]; [McClenahan et al., 2022]).

Data set [1] in a line: Plasma binding by equilibrium dialysis, human. The conditions noted are these: equilibrium dialysis 6 hours 37°C, read-out: Fu, plasma (human). The format is in vitro ADME. How it is done: Determination of VU0542270 fraction unbound (fu) in plasma from mouse, rat, and human was conducted in vitro via equilibrium dialysis using high-throughput dialysis (HTD) membrane plates. Dialysis membranes (four paired strips per HTD assay) were hydrated as described by the manufacturer and inserted into the HTD plate, which was assembled and prepared for sample addition by the dispensing of blank buffer [Delbecco’s phosphate buffered saline (DPBS), 100 µL/well] into the “top half” of each membrane-split well. VU0542270 was diluted into plasma from each species (5 µM final concentration), which was aliquoted in triplicate to the “bottom half” of the prepared HTD plate wells. The HTD plate was sealed and incubated for 6 hours at 37°C. Following incubation, each well (both top and bottom halves) was transferred (20 µL) to the corresponding well of a 96-shallow-well (V-bottom) plate. […]
fu was calculated as (analyte to IS mass spectrometry (MS) peak area ratio from Trans-buffer side)/(analyte to IS MS peak area ratio from Cis-plasma side). Mean values for each species were calculated from three replicates.
(In equilibrium dialysis only unbound substance equilibrates across the membrane.)

Some results are limits rather than exact numbers.

As to `Cc1nc(-c2cccs2)sc1CNC(=O)Nc1cccs1` [VU0542270], on Kir3.1/Kir3.4, the IC50 (commonly the point on the concentration scale where inhibition reaches its midpoint) was > 30 µM. In addition, in data set [1], the fraction unbound at 6 h, 5 µM is 0.01.
